Assay results taken from ChEMBL document CHEMBL1201862, “PubChem BioAssay data set” (2004).
Activity calls are given as the source filed them.

Assays:
Coagulation factor XII = biological target: T1, Coagulation factor XII (Homo sapiens, UniProt P00748); format: functional;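 further: activated factor XIIa alpha cleaving a fluorogenic AMC peptide substrate; inhibitor potency from loss of enzyme activity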
T1 sequence (P00748 whole entry): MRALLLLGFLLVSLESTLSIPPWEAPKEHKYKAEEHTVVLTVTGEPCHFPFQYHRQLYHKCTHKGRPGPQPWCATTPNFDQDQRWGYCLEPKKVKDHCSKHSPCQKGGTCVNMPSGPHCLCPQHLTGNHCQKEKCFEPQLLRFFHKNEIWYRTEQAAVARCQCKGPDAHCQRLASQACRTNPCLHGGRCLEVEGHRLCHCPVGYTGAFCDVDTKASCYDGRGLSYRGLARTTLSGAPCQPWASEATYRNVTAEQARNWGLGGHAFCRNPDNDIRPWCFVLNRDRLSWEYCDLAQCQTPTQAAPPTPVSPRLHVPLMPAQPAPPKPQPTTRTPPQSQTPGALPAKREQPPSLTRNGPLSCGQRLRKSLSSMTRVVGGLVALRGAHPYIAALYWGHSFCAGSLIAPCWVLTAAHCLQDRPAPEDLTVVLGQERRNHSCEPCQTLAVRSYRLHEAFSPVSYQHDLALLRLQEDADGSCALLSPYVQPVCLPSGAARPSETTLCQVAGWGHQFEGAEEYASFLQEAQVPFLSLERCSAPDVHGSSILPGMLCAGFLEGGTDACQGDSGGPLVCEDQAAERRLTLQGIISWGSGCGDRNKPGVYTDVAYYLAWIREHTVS

cells [1] = format: functional, cell-based
cells [2] = format: functional, cell-based; remark: listed apart in the source
[3] = biological target: G-protein coupled receptor 55 (Homo sapiens, UniProt Q9Y2T6); experiment: GPR55 antagonists blocking LPI-driven arrestin recruitment, primary screen, imaging, U2OS, beta-arrestin-GFP, LPI agonist (AID 2013); format: functional;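 further: antagonist potency measured as reduced agonist-driven arrestin aggregation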
[4] = control 3'UTR Renilla luciferase suppression, dose response, counter-screen for Shn3 inhibitor project, cell-based, Clone20-Shn3RL, cherry-picked (AID 624133); format: functional
[5] = HepG2 cell cytotoxicity, dose response, cytotoxicity control for Shn3 inhibitor project, CellTiter-Glo, cherry-picked (AID 624134); format: functional, cell-based
[6] = Shn3 3'UTR reporter inhibitors, dose response, cell-based, Clone20 osteoblasts, firefly luciferase, cherry-picked (AID 624132); format: functional;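 further: firefly luciferase luminescence from reporter carrying the Shn3 3'UTR in osteoblasts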
[7] = cytotoxicity in HEK-293T cells, dose response, cytotoxicity control for TCR NF-kB inhibitor project, luminescence, T-cell screen hits (AID 489026); format: functional, cell-based;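 further: cells exposed to compound about 14 hours before the viability readout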
INS1 = experiment: beta cell apoptosis inhibitors, cytokine rescue, dose response, luminescence, retest (AID 449756); format: functional, cell-based; conditions: Rattus norvegicus;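 further: cell death triggered by IL-1 beta plus TNF-alpha plus IFN-gamma mixture; protective hits raise ATP signal compared with cytokine alone wells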
Protein Wnt-3a = Protein Wnt-3a (Mus musculus, UniProt P27467); experiment: Wnt3a-driven reporter signaling inhibition, dose response, selectivity assay for Gli-SUFU antagonist project, Wnt-LIGHT cells, luminescence (AID 651570); format: functional; conditions: read-out: IC50_Mean;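 further: Wnt-LIGHT reporter cells stimulated with conditioned medium from Wnt3a-producing cells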
[8] = biological target: Glucose-6-phosphate 1-dehydrogenase (Homo sapiens, UniProt P11413); experiment: human G6PD enzyme inhibitors, dose response, selectivity assay for P. falciparum G6PD inhibitor project, biochemical, fluorescence (AID 504792); format: functional
Protein skinhead-1 = biological target: T2, Protein skinhead-1 (Caenorhabditis elegans, UniProt P34707); format: functional
T2 sequence (P34707 whole entry): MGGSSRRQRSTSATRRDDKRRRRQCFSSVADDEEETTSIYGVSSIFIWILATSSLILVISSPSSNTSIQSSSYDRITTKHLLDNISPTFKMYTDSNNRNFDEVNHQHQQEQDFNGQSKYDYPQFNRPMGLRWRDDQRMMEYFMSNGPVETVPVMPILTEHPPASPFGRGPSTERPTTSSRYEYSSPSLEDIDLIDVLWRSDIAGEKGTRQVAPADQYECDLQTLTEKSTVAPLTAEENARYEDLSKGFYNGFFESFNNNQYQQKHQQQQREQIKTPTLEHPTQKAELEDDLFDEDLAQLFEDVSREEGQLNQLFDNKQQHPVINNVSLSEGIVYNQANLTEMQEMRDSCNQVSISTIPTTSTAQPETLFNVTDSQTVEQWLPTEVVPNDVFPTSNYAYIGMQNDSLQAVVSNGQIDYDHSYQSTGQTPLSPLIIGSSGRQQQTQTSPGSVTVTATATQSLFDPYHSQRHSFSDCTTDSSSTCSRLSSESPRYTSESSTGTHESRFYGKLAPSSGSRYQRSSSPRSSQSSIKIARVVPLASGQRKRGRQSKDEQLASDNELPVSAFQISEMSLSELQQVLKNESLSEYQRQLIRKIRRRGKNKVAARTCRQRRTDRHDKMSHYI

[9] = inhibitors of intracellular T. cruzi replication, confirmation, NIH3T3 host cells, beta-gal luminescence (AID 2044); format: functional, cell-based;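 further: intracellular parasites grown in NIH/3T3 mouse fibroblasts as host cells; luminescent beta-galactosidase reporter signal from transgenic T. cruzi replicating inside host cells; inhibitors lower the luminescence signal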
Beta-galactosidase [10] = biological target: T3, Beta-galactosidase (Escherichia coli, UniProt Q8VNN2); experiment: beta-galactosidase enzyme inhibitors and activators, dose response, artefact control for CCR6 antagonist project, biochemical, E. coli enzyme, set 3 (AID 504712); format: functional
[11] = cytotoxicity toward NIH3T3 fibroblasts, dose response, counter-screen, cell-based, ATP luminescence, mouse fibroblasts (AID 2010); format: functional;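 further: cells exposed to compound for about 90 hours before reading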
Phospholipase A2 = Phospholipase A2 (Homo sapiens, UniProt P04054); format: functional;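 further: confirmatory dose-response counterscreen on phospholipase A2, testing hits that came from an ultra-high-throughput screen for ATG4B inhibitors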
Cysteine protease ATG4B = biological target: T4, Cysteine protease ATG4B (Homo sapiens, UniProt Q9Y4P1); format: functional;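 further: Fluorescence-based dose-response confirmation assay measuring inhibition of ATG4B activity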
T4 sequence (Q9Y4P1 whole entry): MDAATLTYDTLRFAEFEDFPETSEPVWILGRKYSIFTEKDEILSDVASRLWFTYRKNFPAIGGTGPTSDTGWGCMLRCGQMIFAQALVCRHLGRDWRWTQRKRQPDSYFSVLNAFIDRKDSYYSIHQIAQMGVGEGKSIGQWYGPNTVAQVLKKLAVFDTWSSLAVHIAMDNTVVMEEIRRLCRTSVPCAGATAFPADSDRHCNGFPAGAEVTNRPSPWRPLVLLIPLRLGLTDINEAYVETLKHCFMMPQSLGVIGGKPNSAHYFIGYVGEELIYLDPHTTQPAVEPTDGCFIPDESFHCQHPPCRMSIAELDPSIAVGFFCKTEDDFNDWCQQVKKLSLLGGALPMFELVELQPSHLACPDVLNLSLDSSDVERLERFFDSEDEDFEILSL

[12] = growth suppression of PTEN-null colon cells, dose response, cell-based, HCT116 PTEN knockout (AID 1047); format: functional;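 further: HCT116 colon tumor cells with PTEN knocked out; cells exposed to compound for 60 hours before readout; potency for loss of cell viability measured by luminescence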
[13] = growth suppression of beta-catenin-knockout colon cells, dose response, cell-based, HCT116, human colon tumor (AID 1045); format: functional;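 further: HCT116 colon tumor cells with beta catenin knocked out; cells exposed to compound for 60 hours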
Genome polyprotein = Genome polyprotein (dengue virus type 2, UniProt P29990); experiment: Dengue-2 NS5 methyltransferase inhibitors, primary screen, biochemical, confirmation dose response (AID 588689); format: functional
[14] = inhibitors of clade B AD8 Env fusion, dose response, cell-based, cherry-pick (AID 652062); format: functional;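 further: luciferase signal from cell-cell fusion driven by HIV-1 clade B AD8 Env; potency is for inhibitors of fusion seen as a drop in luminescence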
[15] = biological target: T5, Type-1 angiotensin II receptor (Homo sapiens, UniProt P30556); experiment: AT1 receptor antagonists, dose response, selectivity assay for APJ receptor antagonist project, cell-based, uHTS hits (AID 463214); format: functional;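 further: antagonist potency against angiotensin II stimulated AT1 response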
T5 sequence (P30556 whole entry): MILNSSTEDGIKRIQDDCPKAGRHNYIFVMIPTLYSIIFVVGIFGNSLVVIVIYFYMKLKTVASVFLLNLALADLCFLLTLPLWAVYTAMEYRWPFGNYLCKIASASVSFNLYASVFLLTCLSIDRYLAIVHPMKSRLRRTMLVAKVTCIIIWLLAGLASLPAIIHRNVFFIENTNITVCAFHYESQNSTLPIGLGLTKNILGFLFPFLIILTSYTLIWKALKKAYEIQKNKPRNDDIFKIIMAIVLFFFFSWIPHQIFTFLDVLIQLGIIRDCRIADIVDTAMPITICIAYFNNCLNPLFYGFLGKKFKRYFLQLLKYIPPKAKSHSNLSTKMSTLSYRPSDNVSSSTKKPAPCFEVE

Beta-galactosidase [16] = biological target: T3, Beta-galactosidase; experiment: PubChem AID 485352; format: functional
[17] = biological target: NAD-dependent protein deacylase sirtuin-5, mitochondrial (Homo sapiens, UniProt Q9NXA8); experiment: SIRT5 desuccinylase inhibitors, dose response, biochemical, fluorescence imaging, cherry-pick, set 5 (AID 720591);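 further: desuccinylation of succinyl peptide AMC substrate read as fluorescence after trypsin release; potency of inhibitors that lower fluorescence and may act on trypsin instead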
[18] = biological target: T6, Microphthalmia-associated transcription factor (Homo sapiens, UniProt O75030); experiment: TRPM1 promoter luciferase signal decrease, dose response, MITF inhibitor project, cell-based, SK-MEL-5, cherry-picked, set 3 (AID 493073); format: functional
T6 sequence (O75030 whole entry): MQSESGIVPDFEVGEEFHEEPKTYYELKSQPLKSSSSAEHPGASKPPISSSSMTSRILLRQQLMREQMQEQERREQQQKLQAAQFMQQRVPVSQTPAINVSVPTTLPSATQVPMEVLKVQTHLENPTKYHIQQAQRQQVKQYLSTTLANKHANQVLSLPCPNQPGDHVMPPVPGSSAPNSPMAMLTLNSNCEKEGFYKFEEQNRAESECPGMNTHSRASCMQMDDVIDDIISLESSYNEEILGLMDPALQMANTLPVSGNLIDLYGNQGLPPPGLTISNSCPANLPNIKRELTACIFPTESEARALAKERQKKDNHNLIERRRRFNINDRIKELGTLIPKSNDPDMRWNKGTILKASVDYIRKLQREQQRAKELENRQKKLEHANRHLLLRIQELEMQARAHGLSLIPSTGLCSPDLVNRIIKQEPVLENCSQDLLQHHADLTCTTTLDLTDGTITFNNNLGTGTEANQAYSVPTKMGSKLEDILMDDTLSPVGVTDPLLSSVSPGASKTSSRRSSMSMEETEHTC

Prothrombin = Prothrombin (Homo sapiens, UniProt P00734); experiment: Thrombin 1536 HTS Dose Response Confirmation. [Related pubchem assays: 1046 (Thrombin 1536 HTS; hits were confirmed in this assay)]; format: functional

Protein Wnt-3a, sequence (P27467 whole entry): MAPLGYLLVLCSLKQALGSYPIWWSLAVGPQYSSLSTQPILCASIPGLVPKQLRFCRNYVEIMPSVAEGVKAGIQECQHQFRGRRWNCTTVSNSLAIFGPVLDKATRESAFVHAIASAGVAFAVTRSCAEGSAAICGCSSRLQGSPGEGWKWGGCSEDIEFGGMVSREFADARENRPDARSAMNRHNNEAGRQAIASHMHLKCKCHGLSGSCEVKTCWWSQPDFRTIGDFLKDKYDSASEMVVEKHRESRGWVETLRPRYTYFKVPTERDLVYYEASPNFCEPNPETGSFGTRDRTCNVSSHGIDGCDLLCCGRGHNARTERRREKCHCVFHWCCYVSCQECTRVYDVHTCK
T3 sequence (Q8VNN2 whole entry): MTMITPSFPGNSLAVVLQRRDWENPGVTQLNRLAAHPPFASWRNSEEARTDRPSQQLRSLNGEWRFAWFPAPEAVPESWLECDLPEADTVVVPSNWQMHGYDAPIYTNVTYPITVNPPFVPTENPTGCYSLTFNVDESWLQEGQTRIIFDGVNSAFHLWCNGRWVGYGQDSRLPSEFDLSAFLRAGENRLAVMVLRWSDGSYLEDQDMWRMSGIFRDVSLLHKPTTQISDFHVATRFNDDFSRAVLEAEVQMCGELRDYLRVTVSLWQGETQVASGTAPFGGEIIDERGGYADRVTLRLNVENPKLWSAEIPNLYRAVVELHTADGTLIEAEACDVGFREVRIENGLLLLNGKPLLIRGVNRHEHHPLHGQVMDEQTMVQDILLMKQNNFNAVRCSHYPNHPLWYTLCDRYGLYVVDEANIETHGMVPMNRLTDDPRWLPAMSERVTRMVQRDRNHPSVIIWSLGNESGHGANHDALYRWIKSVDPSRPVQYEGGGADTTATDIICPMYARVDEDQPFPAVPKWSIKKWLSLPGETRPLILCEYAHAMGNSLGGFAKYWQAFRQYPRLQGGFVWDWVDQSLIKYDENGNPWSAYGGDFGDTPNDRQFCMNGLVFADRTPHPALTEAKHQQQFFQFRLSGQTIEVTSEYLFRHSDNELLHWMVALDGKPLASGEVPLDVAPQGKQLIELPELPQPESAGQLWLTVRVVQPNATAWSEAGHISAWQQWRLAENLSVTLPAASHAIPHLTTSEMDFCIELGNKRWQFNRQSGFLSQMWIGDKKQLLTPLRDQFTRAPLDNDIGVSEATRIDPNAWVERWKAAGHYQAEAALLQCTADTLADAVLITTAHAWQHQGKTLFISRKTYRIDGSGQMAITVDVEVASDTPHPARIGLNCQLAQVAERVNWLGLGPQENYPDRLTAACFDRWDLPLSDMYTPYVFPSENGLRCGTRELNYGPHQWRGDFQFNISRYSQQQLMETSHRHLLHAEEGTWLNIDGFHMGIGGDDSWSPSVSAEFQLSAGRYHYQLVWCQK
Phospholipase A2, sequence (P04054 whole entry): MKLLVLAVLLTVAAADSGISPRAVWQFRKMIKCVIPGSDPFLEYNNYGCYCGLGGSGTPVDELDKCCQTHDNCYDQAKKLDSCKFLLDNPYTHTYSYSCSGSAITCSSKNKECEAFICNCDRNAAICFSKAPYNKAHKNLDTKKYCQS
G-protein coupled receptor 55, sequence (Q9Y2T6 whole entry): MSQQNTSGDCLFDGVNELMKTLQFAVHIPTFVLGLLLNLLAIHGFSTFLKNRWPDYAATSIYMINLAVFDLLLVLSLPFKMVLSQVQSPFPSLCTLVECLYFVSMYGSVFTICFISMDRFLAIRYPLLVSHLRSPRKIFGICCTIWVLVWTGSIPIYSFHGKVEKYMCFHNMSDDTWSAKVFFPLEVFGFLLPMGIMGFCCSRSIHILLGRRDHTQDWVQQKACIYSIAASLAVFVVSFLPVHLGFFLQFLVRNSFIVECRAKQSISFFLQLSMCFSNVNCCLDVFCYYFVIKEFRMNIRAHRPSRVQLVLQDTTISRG
Genome polyprotein, sequence (P29990 2492-3391 limits assumed): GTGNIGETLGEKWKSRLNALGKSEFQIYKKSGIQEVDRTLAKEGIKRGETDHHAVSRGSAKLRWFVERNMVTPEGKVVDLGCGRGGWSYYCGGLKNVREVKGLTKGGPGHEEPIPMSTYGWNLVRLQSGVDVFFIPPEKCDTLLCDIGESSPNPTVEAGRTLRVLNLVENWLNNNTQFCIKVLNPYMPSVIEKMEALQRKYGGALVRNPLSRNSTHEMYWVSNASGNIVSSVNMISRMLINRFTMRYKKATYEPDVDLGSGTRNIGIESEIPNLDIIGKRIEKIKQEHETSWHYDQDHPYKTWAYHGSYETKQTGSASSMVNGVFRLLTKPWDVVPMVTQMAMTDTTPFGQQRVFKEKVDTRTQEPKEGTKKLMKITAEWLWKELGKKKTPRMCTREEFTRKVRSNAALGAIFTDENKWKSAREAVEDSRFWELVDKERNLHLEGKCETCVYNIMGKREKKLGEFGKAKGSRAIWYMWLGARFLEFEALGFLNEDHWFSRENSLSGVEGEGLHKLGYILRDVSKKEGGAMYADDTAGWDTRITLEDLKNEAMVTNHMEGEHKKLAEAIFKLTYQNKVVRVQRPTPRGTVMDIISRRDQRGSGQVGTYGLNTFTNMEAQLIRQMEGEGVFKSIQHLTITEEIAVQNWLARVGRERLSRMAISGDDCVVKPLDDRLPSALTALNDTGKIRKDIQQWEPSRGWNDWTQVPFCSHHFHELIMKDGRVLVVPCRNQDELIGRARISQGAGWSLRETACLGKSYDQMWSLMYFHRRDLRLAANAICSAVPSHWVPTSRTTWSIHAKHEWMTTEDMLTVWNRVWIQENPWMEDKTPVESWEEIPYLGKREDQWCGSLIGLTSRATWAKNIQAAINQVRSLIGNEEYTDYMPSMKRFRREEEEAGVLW
NAD-dependent protein deacylase sirtuin-5, mitochondrial, sequence (Q9NXA8 whole entry): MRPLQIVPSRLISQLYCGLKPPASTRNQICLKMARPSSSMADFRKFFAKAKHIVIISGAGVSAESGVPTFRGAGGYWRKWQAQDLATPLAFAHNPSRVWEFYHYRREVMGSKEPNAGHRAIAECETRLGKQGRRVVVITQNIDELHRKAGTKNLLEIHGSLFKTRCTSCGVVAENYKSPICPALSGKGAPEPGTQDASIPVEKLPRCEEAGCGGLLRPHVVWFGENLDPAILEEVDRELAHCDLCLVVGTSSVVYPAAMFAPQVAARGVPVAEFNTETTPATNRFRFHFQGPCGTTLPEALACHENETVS
Glucose-6-phosphate 1-dehydrogenase, sequence (P11413 whole entry): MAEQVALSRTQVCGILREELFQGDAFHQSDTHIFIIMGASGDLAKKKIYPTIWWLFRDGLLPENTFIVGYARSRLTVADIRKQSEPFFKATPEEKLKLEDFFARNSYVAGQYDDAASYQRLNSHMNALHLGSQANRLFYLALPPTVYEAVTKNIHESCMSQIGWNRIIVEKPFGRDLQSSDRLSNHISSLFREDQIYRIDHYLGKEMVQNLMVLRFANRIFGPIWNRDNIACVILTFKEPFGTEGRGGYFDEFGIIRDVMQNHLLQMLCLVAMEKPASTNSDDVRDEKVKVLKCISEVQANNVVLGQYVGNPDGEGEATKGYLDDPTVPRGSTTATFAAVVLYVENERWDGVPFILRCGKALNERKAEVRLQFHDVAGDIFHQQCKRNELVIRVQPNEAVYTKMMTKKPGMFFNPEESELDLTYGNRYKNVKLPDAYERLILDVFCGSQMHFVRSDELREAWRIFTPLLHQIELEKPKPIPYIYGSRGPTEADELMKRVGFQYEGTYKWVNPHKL

## CN(C)/C=C/c1c(C#N)c(=O)ncn1Cc1ccccc1
Coagulation factor XII
  IC50: > 50 µM (inactive)

## Oc1nc(Nc2ccccc2)nc(N2CCCC2)n1
Cells [1]
  EC50: > 29.9 µM (inactive)
Cells [2]
  IC50: > 29.9 µM (inactive)

## CC(C)C[C@H](NC(=O)c1[nH]cnc1C(=O)NCc1ccc(CNC(=O)OC(C)(C)C)cc1)C(=O)OCc1ccccc1
[3]
  IC50: 2.3 µM (active)

## COc1cccc(CN(C)C(=O)c2cc(COc3ccc4ncccc4c3)on2)c1
[4]
  AC50: 2.1 µM (active)
[5]
  AC50: 3.93 µM (active)
[6]
  AC50: 1.49 µM (active)
[7]
  IC50: 59.9 µM (inactive)
INS1
  AC50: 5.13 µM (active)
Protein Wnt-3a
  IC50: 1.02 µM (active)

## Cc1ccccc1-n1c(-c2ccc3ccccc3n2)n[nH]c1=S
[8]
  IC50: > 80 µM (inactive)

## O=[N+]([O-])c1ccc(/C=C/C2=NN(c3ccccc3)C(c3ccco3)C2)o1 (centres undefined)
Protein skinhead-1
  IC50: > 100 µM (inactive)
[9]
  EC50: 0.427 µM (active)
Beta-galactosidase [10]
  IC50: 41 µM (inactive)
[11]
  EC50: 18.5 µM (active)

## Cc1c(C(C)C)c(=O)n(-c2ccc(S(=O)(=O)NC3CCCCC3)cc2)n1C
[4]
  AC50: 1.76 µM (active)
[5]
  AC50: 3.93 µM (active)
[6]
  AC50: 1.06 µM (active)
Protein Wnt-3a
  IC50: 2.91 µM (active)

## COc1ccc(C(C)=O)cc1CSc1nc2ccccc2c(=O)n1-c1cccc(C)c1
Phospholipase A2
  IC50: 0.321 µM (active)
Cysteine protease ATG4B
  IC50: 0.502 µM (active)
[12]
  EC50: 28.9 µM (active)
[13]
  EC50: 29.1 µM (active)

## CN(C)c1ccnc(N(Cc2ccccc2)Cc2ccccc2)c1C#N
[3]
  IC50: 0.509 µM (active)

## O=C(O)c1ccc(/C=C2\SC(=S)N(Nc3ccccc3)C2=O)cc1
Coagulation factor XII
  IC50: > 50 µM (inactive)
Genome polyprotein
  IC50: 58 µM (active)
INS1
  AC50: 3.85 µM (active)

## O=C(c1cccc(S(=O)(=O)N2CCN(c3ccccc3)CC2)c1)N1CCCC(C(F)(F)F)C1 (centres undefined)
[14]
  AC50: 6.01 µM (active)
[4]
  AC50: 0.475 µM (active)
[5]
  AC50: 37.3 µM (active)
[6]
  AC50: 2.68 µM (active)
Protein Wnt-3a
  IC50: 41.8 µM (inactive)

## O=C(O)/C=C/C(=O)NCc1csc2ccccc12
Cells [1]
  EC50: > 29.9 µM (inactive)
Cells [2]
  IC50: > 29.9 µM (inactive)

## CC1=NN(C(N)=S)C(=O)C1N=Nc1ccc([N+](=O)[O-])cc1 (centres undefined)
[15]
  IC50: 35.3 µM (not active)
Beta-galactosidase [16]
  EC50: > 40 µM (inactive)

## Cc1c(-c2ccc(OCCN3CCOCC3)cc2)c(=O)oc2ccc3ccccc3c12
[17]
  AC50: > 30 µM (inactive)

## COC(=O)c1ccc(/C=C(\C#N)C(=O)NC(C)c2ccccc2)cc1 (centres undefined)
[18]
  AC50: 10.7 µM (active)
[12]
  EC50: 47.1 µM (active)

## CC[n+]1c(C=C2C=CN(C)C=C2)ccc2cc(C)ccc21
[18]
  AC50: 1.74 µM (active)

## Cc1cc(C(=O)Nc2nc(C)c(C(=O)N(C)C)s2)ccc1[N+](=O)[O-]
Prothrombin
  IC50: > 50 µM (not active)
Coagulation factor XII
  IC50: > 50 µM (inactive)

## FC(F)(F)Oc1ccc(NC(S)=NCc2ccccc2)cc1
Phospholipase A2
  IC50: 12.2 µM (active)
Cysteine protease ATG4B
  IC50: 25.4 µM (inactive)
